Data from patent US12239729B2, “TRPV3 agonists for the treatment of skin conditions” (Soricimed Biopharma Inc., priority 2012, dated 2025).
Peptide text beside a SMILES is read from it.

Molecular target: T1, TRPV3 channels expressed in HEK-293 cells (Homo sapiens, UniProt Q8NET8)
T1 construct: expressed in transfected cells; host or cells: HEK-293 cells, transient transfection
T1 sequence (Q8NET8 1-790): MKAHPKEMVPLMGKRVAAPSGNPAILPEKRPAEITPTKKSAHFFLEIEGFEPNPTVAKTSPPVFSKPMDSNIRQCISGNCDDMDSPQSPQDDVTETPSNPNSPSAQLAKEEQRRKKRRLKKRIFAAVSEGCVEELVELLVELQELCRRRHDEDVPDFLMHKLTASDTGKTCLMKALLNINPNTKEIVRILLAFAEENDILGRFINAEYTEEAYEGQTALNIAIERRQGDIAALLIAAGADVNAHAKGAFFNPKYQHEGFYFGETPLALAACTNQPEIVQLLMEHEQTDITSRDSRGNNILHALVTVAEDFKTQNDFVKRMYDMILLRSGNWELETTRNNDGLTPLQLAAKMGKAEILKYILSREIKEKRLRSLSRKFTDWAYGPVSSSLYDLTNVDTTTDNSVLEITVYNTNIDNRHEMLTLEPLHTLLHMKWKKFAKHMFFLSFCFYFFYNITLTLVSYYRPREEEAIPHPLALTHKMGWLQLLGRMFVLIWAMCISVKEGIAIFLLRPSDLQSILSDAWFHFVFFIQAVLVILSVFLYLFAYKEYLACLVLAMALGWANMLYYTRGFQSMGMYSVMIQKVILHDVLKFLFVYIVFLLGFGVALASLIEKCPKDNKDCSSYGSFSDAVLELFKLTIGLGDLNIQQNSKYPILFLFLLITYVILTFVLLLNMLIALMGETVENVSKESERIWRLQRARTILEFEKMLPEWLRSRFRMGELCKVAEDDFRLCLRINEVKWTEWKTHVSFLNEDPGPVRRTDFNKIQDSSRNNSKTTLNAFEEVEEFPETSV
Assay: Patch-clamp testing of TRPV3 channel activity in transfected HEK-293 cells
Type: cell-based
Procedure: SOR-C13, SOR-C27 and SOR-N54 were tested using a patch clamp screen to determine whether the peptide had any effect on the channel activity of TRPV3. Ruthenium red, a known antagonist of TRPV3 and 2-Aminoethoxydiphenyl Borate (2-APB) a known activator of TRPV3 were used as controls.
HEK 293 cells were maintained in ϕ30 mm cell culture plate in DMEM media supplemented with 10% fetal bovine serum and penicillin/streptomycin. Cells were grown in a humidified atmosphere of 95% air/5% CO2 at 37° C. in a cell culture incubator.
The cells from 70-90% confluence were prepared for transfection. For transient expression in HEK-293 cells 1 μg plasmid cDNA and pEGFP (in vivo reporter of gene expression) were used.
Recordings were performed at 20˜23° C. Currents were sampled using Digidata 1440A, amplified, and filtered at 2 kHz using Axopatch 200B, then acquired and analyzed using pClamp 10.0 (Molecular Devices, Sunny vales, CA, USA).
The pipette solution and bath solution contained 140 mM CsCl, 4 mM MgCl2, 10 mM EGTA, CsOH pH=7.3 and 130 mM NaCl, 5 mM KCl, 2 mM CaCl2), 1 mM MgCl2, 25 mM HEPES, 30 mM Glucose, pH=7.3, respectively.
Each peptide was diluted in the bath solution to the desired concentration (0.01 μM, 0.03 μM, 0.1 μM, 0.3 μM, 1 μM, 3 μM, or 10 μM), respectively.

For `CC(C)C[C@H](NC(=O)[C@H](Cc1ccccc1)NC(=O)[C@H](CCC(=O)O)NC(=O)[C@@H](N)CCCCN)C(=O)N[C@@H](Cc1cnc[nH]1)C(=O)N1CCC[C@H]1C(=O)N[C@@H](CO)C(=O)N[C@@H](CCCCN)C(=O)N[C@H](C(=O)N[C@@H](CC(=O)O)C(=O)N[C@@H](CC(C)C)C(=O)N1CCC[C@H]1C(=O)N[C@@H](CCCNC(=N)N)C(=O)O)C(C)C` [SOR-C13, KEFLHPSKVDLPR] (H-KEFLHPSKVDLPR-OH), the EC50 was 21.7 nM.
